Experimental data published in the NIST ThermoML archive (doi:10.1016/j.jct.2011.12.005).
± gives the expanded uncertainty stated by the source.

Legend:
[1] = Molar enthalpy of transition or fusion
[2] = for Normal melting temperature: Crystal, DTA
[3] = Crystal 2, Differential scanning calorimeter

Cc1ccc(C(C)C)c(O)c1 [3-methyl-6-isopropylphenol]
Molar enthalpy of transition or fusion ([1]; Crystal, DSC): 4.16 ± 0.12 kcal/mol
Normal melting temperature [2]: 49 ± 0.4 °C

COc1cc(C(=O)O)ccc1O [4-hydroxy-3-methoxybenzoic acid]
Molar enthalpy of transition or fusion ([1]; Crystal, DSC): 6.96 ± 0.191 kcal/mol
Normal melting temperature [2]: 207.6 ± 0.5 °C

COc1cc(C=CC(=O)O)ccc1O [4-hydroxy-3-methoxycinnamic acid]
Molar enthalpy of transition or fusion ([1]; Crystal, DSC): 7.62 ± 0.215 kcal/mol
Normal melting temperature [2]: 171.8 ± 0.9 °C

Cn1c(=O)c2c(ncn2C)n(C)c1=O [caffeine]
Molar enthalpy of transition or fusion [1, 3]: 0.621 kcal/mol
Molar enthalpy of transition or fusion ([1]; Crystal, DSC): 4.28 ± 0.143 kcal/mol
Triple point temperature [2, 3]: 405.8 K
Normal melting temperature [2]: 232.2 ± 0.5 °C
